Where “and” joins values, the source holds several entries; their conditions need not be identical. Equal values may be shown once. Read-outs that look alike come from different tables or passages of the source.
Tests used:
human UDG [1] = target: T1, human UDG (Homo sapiens, UniProt P13051); assay: Gel-based DNA cleavage assay with a single U:A basepair; type: biochemical; design: 6xHis; purchased XTAL Biostructures; host or cells: Sf9 insect cells
Method: 20% polyacrylamide nucleic acid urea gel electrophoresis was used to resolve the DNA bands at room temperature, 200 v for 50 min. Analysis and quantification of DNA cleavage were done as follows. A background subtraction step was included using the 23mer from the DNA only lane. […] A single oxo-guanine: cytosine base pair DNA with a Cy3 fluorescent tag on the 3′ end was used (10 nM).
Following pre-incubation occurred for 20 min at 37° C., 2 μL of U:A DNA (500 nM stock) was added to initiate the reaction, total reaction volume of 50 μL/well. Each plate was incubated for 120 min at 37° C. Then, each 96 well plate was sealed and heated at a constant temperature of 95° C. for 55 min using the CFX96 real time system thermocycler. After the heating process, 5 μL of a bromophenol blue denaturing loading dye (20milligrams of bromophenol blue, 9.7 ml of formamide plus 300 μL of 10M NaOH) was added to each reaction well. […] TBE buffer was prepared by dissolving 54 grams of tris base, 28 grams of boric acid, and 4.5 grams of EDTA in 1.0 liter of distilled H2O. Gels were processed at 200V for 60 min in the dark. Gels were imaged based on the fluorescent tags using Typhoon Trio+Variable Mode Imager (Amersham Biosciences) with excitation and emission wavelengths set to 532 nm and 585 nm respectively, photomultiplier tube voltage (PMT) was set to 400V, and pixel size resolution set to 100 μm. Gel data were analyzed using ImageJ software. DNA bands were corrected using a background subtraction step. Percent cleavage was calculated by using fluorescence intensity of the cleaved 23-mer DNA strand divided by the sum of the fluorescence bands (23mer+40mer DNA strands)*100. Relative percent cleavage was generated by using the untreated DMSO condition divided by each treated drug dose*100.
Target sequence in this assay (P13051 1-304 isoform P13051-2): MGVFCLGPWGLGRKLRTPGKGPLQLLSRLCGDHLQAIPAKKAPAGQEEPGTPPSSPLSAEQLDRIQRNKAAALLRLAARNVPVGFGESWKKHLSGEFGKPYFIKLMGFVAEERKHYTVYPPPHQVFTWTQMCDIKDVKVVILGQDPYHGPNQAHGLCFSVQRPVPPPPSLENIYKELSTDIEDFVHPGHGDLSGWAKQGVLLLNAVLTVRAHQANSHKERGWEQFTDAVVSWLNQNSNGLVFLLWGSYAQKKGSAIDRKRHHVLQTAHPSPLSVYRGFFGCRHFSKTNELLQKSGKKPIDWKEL

[2] = tested on: T:G basepairs (TDG, MBD4) repair in MCF-7 cells; assay: Host-cell reactivation assay, T:G reporter, MCF-7; type: cell-based, human; details: ATA 2.5 μM
Method: Panel A: 1.25 μM and panel B: 2.5 μM. Reporter expression was calculated for each dose of ATA as described in prior publications and normalized to DMSO treatment.
Removal of uracil in cells was measured using a reporter plasmid containing a dU:dG base pair (referred to as BFP_U), as described previously. In brief, dU is substituted into the transcribed strand at position 191 of the blue fluorescent protein (BFP) gene. When RNA polymerase II incorporates dA opposite dU, transcripts encoding wild type BFP are produced. Upon repair, dU is replaced by dC, leading to production of transcripts encoding a non-fluorescent protein. […] A corresponding cocktail of damage-free plasmids containing pmax BFP (100 ng per transfection), pmax GFP (100 ng per transfection), and carrier plasmid (800 ng per transfection) constituted the “undamaged” cocktail. After normalizing to expression of the pmax,GFP transfection control, expression of BFP_U in the damaged cocktail was normalized to similarly normalized expression of pmax_BFP in the undamaged cocktail. The reciprocal of BFP_U reporter expression was calculated for each experimental condition. […] This creates a premature stop codon, completely abolishing fluorescence. Removal of thymidine followed by insertion of dC opposite dG restores reporter fluorescence.

human UDG [3] = target: T1, human UDG; assay: Time course of human UDG activity on uracil DNA hairpin; type: biochemical; design: Bacterially expressed and purified full-length human UDG; made in house
Source text: RFU was monitored over time. Each point on plot represents an average of three replicates. Error bar represents standard deviation from the mean. […] Each data point on the plot is the average of 3 wells (DMSO condition). Error bars represent standard deviation from the mean. […] UDG protein was not added to each reaction. […] Fluorescently labeled FAM-uDNA hairpin was monitored over the melting of the DNA hairpin. […] Each point represents an average of 4 experimental wells. Y Error bars represent the standard deviation from the mean.
To better examine UDG inhibitor activity, we monitored human UDG activity over time.
Target sequence in this assay (P13051 whole entry): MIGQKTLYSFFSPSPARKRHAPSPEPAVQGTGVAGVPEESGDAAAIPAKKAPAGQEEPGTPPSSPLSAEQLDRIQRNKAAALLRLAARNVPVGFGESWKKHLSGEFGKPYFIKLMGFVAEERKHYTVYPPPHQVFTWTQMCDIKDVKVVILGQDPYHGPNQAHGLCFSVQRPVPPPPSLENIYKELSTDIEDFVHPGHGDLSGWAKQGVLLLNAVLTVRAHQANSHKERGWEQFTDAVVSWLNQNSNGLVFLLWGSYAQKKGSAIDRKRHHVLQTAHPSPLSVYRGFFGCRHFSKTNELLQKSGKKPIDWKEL

O=C(O)C1=CC(=C(c2ccc(O)c(C(=O)O)c2)c2ccc(O)c(C(=O)O)c2)C=CC1=O [ATA, aurintricarboxylic acid]
UDG-mediated DNA cutting activity (human UDG [1]; ATA 0.46-12.5 μM, UDG 500 pM, DNA 20 nM): diminishes UDG-mediated DNA cutting activity in a dose-dependent manner
IC50 (human UDG [1]; dsDNA oligo with single U:A base pair, gel-based, read-out: average IC50 towards UDG): 700 nM and ~700 nM
IC50 (human UDG [1]; estimated, read-out: IC50, DNA cutting): 700 nM
inhibition of repair of T:G basepair [2]: not inhibiting
reduction of UDG-mediated un-quenching of u-DNA hairpin (human UDG [3]; ATA below 250 nM, fixed DNA substrate, 5-hour time course): unable to significantly compete
UDG activity over time (human UDG [3]; ATA fixed dose of 500 nM, range of uracil DNA hairpin concentrations): persistently diminished UDG activity
